Results from patent publication USRE47689E1, “Compounds for treating spinal muscular atrophy” (PTC Therapeutics, Inc., priority 2011, dated 2019).
Where two headings read alike, the source gives them in different places.

What was measured:
[1] = tested on: SMN2 minigene (full length SMN2 minigene mRNA containing SMN2 exon 7); experiment: SMN2 minigene mRNA splicing RT-qPCR assay in cultured cells; assay type: cell-based, human; details: Homo sapiens, HEK293-H, read-out: EC1.5x for production of full length SMN2 mRNA
Procedure, shortened: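 HEK293H cells stably carrying the SMN2-A minigene treated 24 h at 37° C with compound (DMSO, 200× stock), then lysed. Multiplex RT-qPCR (SMN primers 0.4 μM final; 40 cycles) measures full-length exon 7-containing minigene mRNA, normalized to GAPDH and to vehicle; EC1.5x derived and binned by stars.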

[2] = tested on: Smn protein; experiment: Smn protein assay in cultured cells (SMN HTRF); assay type: cell-based, human; details: 48 hours; for maximum fold (Fold) increase of Smn protein: SMA patient fibroblast cells, 7-point concentration data, fold increase relative to vehicle control (SMN HTRF); for EC1.5x (concentration giving 1.5-fold Smn protein increase): SMA Type 1 patient fibroblast cells (GM03813), 7-point concentration curve, SMN HTRF, concentration producing 1.5 times Smn protein vs DMSO vehicle control, read-out: EC1.5x for Smn protein expression
Procedure, shortened: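 Lysates in RIPA with protease inhibitors are incubated overnight at room temperature with HTRF anti-SMN antibodies. EC1.5x is derived from fold increase in ΔF over vehicle.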

[3] = HEK293H cells stably transfected with SMN2-A minigene, 24 hours, 7-point concentration curve, 1.5-fold relative to vehicle-treated cells

Compound | melting point | EC (1.5-fold) [1, 3] | maximum fold (Fold) increase of Smn protein [2] | EC1.5x (concentration giving 1.5-fold Smn protein increase) [2] | EC (1.5-fold) ([1]; 24 h)
CN1CCN(c2ccc3cc(-c4cn5cccc(C6CC6)c5n4)c(=O)oc3c2)CC1 [Compound 244, 3-(8-cyclopropylimidazo[1,2-a]pyridin-2-yl)-7-(4-methylpiperazin-1-yl)-2H-chromen-2-one] | 198 to 202 °C | 0.3 to 1 µM | * (maximum fold increase of ≤1.2) | – | –
Cc1ccc2oc(-c3cc4ccc(N5CCN6CCC[C@@H]6C5)cc4oc3=O)cc2n1 [Compound 721, 7-[(8aR)-hexahydropyrrolo[1,2-a]pyrazin-2(1H)-yl]-3-(5-methylfuro[3,2-b]pyridin-2-yl)-2H-chromen-2-one] | 195 to 198 °C | 1 to 3 µM | * (maximum fold increase of ≤1.2) | – | –
C[C@@H]1CN(c2ccc3cc(-c4cc5ccccc5s4)c(=O)oc3c2)CCN1 [Compound 409, 3-(1-benzothiophen-2-yl)-7-[(3R)-3-methylpiperazin-1-yl]-2H-chromen-2-one] | 264 to 266 °C | 1 to 3 µM | * (maximum fold increase of ≤1.2) | – | –
C[C@@H]1CN(c2cc(F)c3cc(-c4cn5cccnc5n4)c(=O)oc3c2)C[C@H](C)N1 [Compound 352, 7-[(3R,5S)-3,5-dimethylpiperazin-1-yl]-5-fluoro-3-(imidazo[1,2-a]pyrimidin-2-yl)-2H-chromen-2-one] | 290 to 292 °C | 0.1 to 0.3 µM | * (maximum fold increase of ≤1.2) | – | –
C[C@H]1CN(c2ccc3cc(-c4cc5ccccc5o4)c(=O)oc3c2)CCN1 [Compound 603, 3-(1-benzofuran-2-yl)-7-[(3S)-3-methylpiperazin-1-yl]-2H-chromen-2-one] | 192 to 194 °C | 0.3 to 1 µM | * (maximum fold increase of ≤1.2) | – | –
Cc1cn2cc(-c3cc4ccc(OCCN(CCO)CCO)cc4oc3=O)nc2c(C)n1 [Compound 896, 7-{2-[bis(2-hydroxyethyl)amino]ethoxy}-3-(6,8-dimethylimidazo[1,2-a]pyrazin-2-yl)-2H-chromen-2-one] | 199 to 202 °C | < 0.1 µM | ***** (fold increase >1.65) | < 300 nM | –
Cc1cn2cc(-c3cc4ccc(N5CCN6CCC[C@@H]6C5)cc4oc3=O)cc2c(C)n1 [Compound 669, 3-(1,3-dimethylpyrrolo[1,2-a]pyrazin-7-yl)-7-[(8aR)-hexahydropyrrolo[1,2-a]pyrazin-2(1H)-yl]-2H-chromen-2-one] | 170 to 173 °C | < 0.1 µM | ***** (fold increase >1.65) | < 300 nM | –
Cc1cn2cc(-c3cc4ccc(N5CCN6CCCCC6C5)cc4oc3=O)nc2c(C)n1 (stereo not drawn) [Compound 633, 3-(6,8-dimethylimidazo[1,2-a]pyrazin-2-yl)-7-(octahydro-2H-pyrido[1,2-a]pyrazin-2-yl)-2H-chromen-2-one] | 225 to 227 °C | < 0.1 µM | *** (fold increase between >1.35 and ≤1.5) | – | –
Cc1cn2cc(-c3cc4ccc(N5CCN(C(C)C)CC5)cc4oc3=O)nc2cn1 [Compound 833, 3-(6-methylimidazo[1,2-a]pyrazin-2-yl)-7-[4-(propan-2-yl)piperazin-1-yl]-2H-chromen-2-one] | 275 to 280 °C | < 0.1 µM | ***** (fold increase >1.65) | < 300 nM | –
COc1cccn2cc(-c3cc4ccc(N5CCNCC5)cc4oc3=O)nc12 [Compound 402, 3-(8-methoxyimidazo[1,2-a]pyridin-2-yl)-7-(piperazin-1-yl)-2H-chromen-2-one] | 236 to 240 °C | 3 to 30 µM | * (maximum fold increase of ≤1.2) | – | –
Cc1cn2cc(-c3cc4ccc(NC5C[C@H]6CCC[C@@H](C5)N6C)cc4oc3=O)cc2c(C)n1 (stereo partly drawn) [Compound 728, 3-(1,3-dimethylpyrrolo[1,2-a]pyrazin-7-yl)-7-{[(1R,5S)-9-methyl-9-azabicyclo[3.3.1]non-3-yl]amino}-2H-chromen-2-one] | 235 to 238 °C | – | * (maximum fold increase of ≤1.2) | – | 0.3 to 1 µM
CCN(CC)C1CCN(c2ccc3cc(-c4cn5cc(C)nc(C)c5n4)c(=O)oc3c2)CC1 [Compound 922, 7-[4-(diethylamino)piperidin-1-yl]-3-(6,8-dimethylimidazo[1,2-a]pyrazin-2-yl)-2H-chromen-2-one] | 205 to 207 °C | < 0.1 µM | *** (fold increase between >1.35 and ≤1.5) | 300 to 1000 nM | –
C[C@@H]1CN(c2ccc3cc(-c4cc5ccccn5n4)c(=O)oc3c2)C[C@H](C)N1 [Compound 189, 7-[(3R,5S)-3,5-dimethylpiperazin-1-yl]-3-(pyrazolo[1,5-a]pyridin-2-yl)-2H-chromen-2-one] | 188 to 190 °C | 1 to 3 µM | ** (fold increase between >1.2 and ≤1.35) | – | –
C[C@H]1CN(c2ccc3cc(-c4ccccn4)c(=O)oc3c2)CCN1 [Compound 444, 7-[(3S)-3-methylpiperazin-1-yl]-3-(pyridin-2-yl)-2H-chromen-2-one] | 145 to 147 °C | – | * (maximum fold increase of ≤1.2) | – | 3 to 30 µM
Cc1cn2cc(-c3cc4ccc(N5C[C@H]6CN(C)C[C@H]6C5)cc4oc3=O)cc2c(C)n1 [Compound 756, 3-(1,3-dimethylpyrrolo[1,2-a]pyrazin-7-yl)-7-[(3aR,6aS)-5-methylhexahydropyrrolo[3,4-c]pyrrol-2(1H)-yl]-2H-chromen-2-one] | 146 to 150 °C | < 0.1 µM | *** (fold increase between >1.35 and ≤1.5) | – | –
C[C@H]1CN(c2ccc3cc(-c4cn5cccc(Cl)c5n4)c(=O)oc3c2)CCN1 [Compound 184, 3-(8-chloroimidazo[1,2-a]pyridin-2-yl)-7-[(3S)-3-methylpiperazin-1-yl]-2H-chromen-2-one] | 215 to 217 °C | 0.3 to 1 µM | *** (fold increase between >1.35 and ≤1.5) | – | –
C[C@@H]1CN(c2ccc3cc(-c4cc5cnccc5s4)c(=O)oc3c2)C[C@H](C)N1 [Cpd 630, 7-[(3R,5S)-3,5-dimethylpiperazin-1-yl]-3-(thieno[3,2-c]pyridin-2-yl)-2H-chromen-2-one] | 163 to 165 °C | 0.3 to 1 µM | * (maximum fold increase of ≤1.2) | – | –
O=c1oc2cc(N3CC4CCC(C3)N4)ccc2cc1-c1cn2cccc(F)c2n1 [Compound 506, 7-(3,8-diazabicyclo[3.2.1]oct-3-yl)-3-(8-fluoroimidazo[1,2-a]pyridin-2-yl)-2H-chromen-2-one] | 232 to 235 °C | – | ** (fold increase between >1.2 and ≤1.35) | – | 0.1 to 0.3 µM
Cc1cnc2nc(-c3cc4ccc(O[C@@H]5CCNC5)cc4oc3=O)cn2c1.Cl.Cl [Compound 327, 3-(6-methylimidazo[1,2-a]pyrimidin-2-yl)-7-[(3R)-pyrrolidin-3-yloxy]-2H-chromen-2-one hydrochloride (1:2)] | 255 to 258 °C | 0.3 to 1 µM | ** (fold increase between >1.2 and ≤1.35) | – | –
O=c1oc2cc(N3CCN4CCC3CC4)ccc2cc1-c1cn2cccnc2n1 [Compound 440, 7-(1,4-diazabicyclo[3.2.2]non-4-yl)-3-(imidazo[1,2-a]pyrimidin-2-yl)-2H-chromen-2-one] | > 300 °C | – | * (maximum fold increase of ≤1.2) | – | 1 to 3 µM
Cc1cn2cc(-c3cc4ccc(N5C[C@@H]6CCCN[C@@H]6C5)cc4oc3=O)nc2c(C)n1 [Compound 794, 3-(6,8-dimethylimidazo[1,2-a]pyrazin-2-yl)-7-[(4aS,7aS)-octahydro-6H-pyrrolo[3,4-b]pyridin-6-yl]-2H-chromen-2-one] | 246 to 253 °C | < 0.1 µM | **** (fold increase between >1.5 and ≤1.65) | < 300 nM | –
CN1CCN(c2ccc3cc(-c4ccn(C)n4)c(=O)oc3c2)CC1 [Compound 73, 7-(4-methylpiperazin-1-yl)-3-(1-methyl-1H-pyrazol-3-yl)-2H-chromen-2-one] | 183 to 186 °C | – | ** (fold increase between >1.2 and ≤1.35) | – | 3 to 30 µM
COc1ccc(-c2cc3ccc(N4CCNCC4)cc3oc2=O)cc1 [Compound 447, 3-(4-methoxyphenyl)-7-(piperazin-1-yl)-2H-chromen-2-one] | 211 to 213 °C | 1 to 3 µM | * (maximum fold increase of ≤1.2) | – | –
Cc1nn2cc(-c3cc4ccc(N5CCN[C@@H](C)C5)cc4oc3=O)nc2s1 [Compound 482, 3-(2-methylimidazo[2,1-b][1,3,4]thiadiazol-6-yl)-7-[(3S)-3-methylpiperazin-1-yl]-2H-chromen-2-one] | 205 to 209 °C | < 0.1 µM | **** (fold increase between >1.5 and ≤1.65) | < 300 nM | –
